Tested on: human SIgA in faeces
Format: in vivo

## CC1=C(/C=C/C(C)=C/C=C/C(C)=C/C=C/C=C(C)/C=C/C=C(C)/C=C/C2=C(C)CCCC2(C)C)C(C)(C)CCC1 [Beta-carotene, beta-carotene]
3 days before exercise
  SIgA faeces, 3 days before exercise: 88 micrograms per 100 g faeces
Reference (before exercise) = 100%
  Recovery in faeces: 13%
Day 1 after exercise
  SIgA faeces, day 1 after exercise: 8 micrograms per 100 g faeces
Day 6 after exercise
  SIgA faeces, day 6 after exercise: 11 micrograms per 100 g faeces

Source: patent US20150335738A1 (priority 2012, published 2015)
